Structures can show the parent of a compound that is named as a salt. Where two headings read alike, the source gives them in different places.
Assays:
A. baumannii = assay: MIC, 96-well CAMHB, 10^5 to 10^2 CFU/mL in 24 hours; format: cell-based, Acinetobacter baumannii; settings: Acinetobacter baumannii, read-out: MIC (A. bumannii)
Procedure: (§1) To determine the MIC of polyamine compounds, the protocol described herein was used.
(§2) In brief, a 0.5 McFarland of each bacterial isolate was made. A 0.5 McFarland is a measure of turbidity in a liquid sample that contains approximately 1×10^∧8 CFU/mL. The 0.5 McFarland standard was diluted in cation adjusted Mueller Hinton Broth (CAMHB), and 50 μL of broth were added to a well of a 96-well plate. In addition, 50 μL of CAMHB that contained a desired concentration of antimicrobial were also added to the well for a final volume of 100 μL and a final concentration of approximately 5×10^4 CFU/well (which equated to approximately 5×10^5 CFU/mL). Each well contained a desired amount of polyamine compound in order to experimentally determine the MIC. Each 96-well plate was incubated at 37° C. for 24 hours. The contents of each well were plated on tryptic soy agar (TSA). TSA plates were incubated for 37° C. for 24 hours after which the number of CFU were counted and used to calculate the CFU/mL that remained after exposure to varying concentrations of compound. This procedure was repeated n=8 times for each concentration of antimicrobial.
A 0.5 McFarland of A. baumannii is made. A 0.5 McFarland is a measure of turbidity in a liquid sample that contains approximately 7.5×10^7 CFU/mL. The 0.5 McFarland standard is diluted in CAMHB and 50 μL of broth is added to a well of a 96-well plate. In addition, 50 μL of CAMHB that contains a desired concentration of antimicrobial is added to the well for a final volume of 100 μL and a final concentration of approximately 5×10^4 CFU/well (which equates to approximately 5×10^5 CFU/mL). Each well contains a desired amount of CZ compound in order to experimentally determine the MIC. Each 96-well plate is incubated at 37° C. for 24 hours. The contents of each well is plated on tryptic soy agar (TSA). TSA plates is incubated at 37° C. for 24 hours after which the number of CFUs is counted and used to calculate the CFU/mL that remain after exposure to varying concentrations of compound. This procedure is repeated n=8 times for each concentration of antimicrobial. […]

MRSA = assay: as above; format: cell-based, Staphylococcus aureus; settings: Staphylococcus aureus, MRSA, read-out: MIC (MRSA)
Procedure: as §1
as §2, with “antimicrobial. […]” for “antimicrobial.”

L-929 cells (ATCC CCL-1) = assay: Minimal Essential Media (MEM) Elution cytotoxicity test; format: cell-based
Procedure: Summary: The Minimal Essential Media (MEM) Elution test was designed to determine the cytotoxicity of extractable substances. The test article was added to cell monolayers and incubated. The cell monolayers were examined and scored based on the degree of cellular destruction.
Acceptance Criteria: The United States Pharmacopeia & National Formulary (USP <87>) states that the test article meets the requirements, or receives a passing score (Pass) if the reactivity grade is not greater than grade 2 or a mild reactivity.
Acceptance criteria were based upon the negative and media controls receiving “0” reactivity grades and positive controls receiving a 3-4 reactivity grades (moderate to severe).
The cell monolayers were examined microscopically. The wells were scored as to the degree of discernable morphological cytotoxicity on a relative scale of 0 to 4:
The results from the three wells were averaged to give a final cytotoxicity score.
[…] This initial concentration was then diluted 1: 2, 1:4, 1:8, and 1:16. Multiple well cell culture plates were seeded with a verified quantity of industry standard L-929 cells (ATCC CCL-1) and incubated until approximately 80% confluent. The test articles and control extracts were added to the cell monolayers in triplicate. The cells were incubated at 37±1° C. with 5±1% CO2 for 48±3 hours.

P. aeruginosa = assay: MIC, 96-well CAMHB, 10^5 to 10^2 CFU/mL in 24 hours; format: cell-based, Pseudomonas aeruginosa; settings: Pseudomonas aeruginosa; Table 5; read-out: MIC (P. aeruginosa)
Procedure: as §1, §2

[1] = Table 10A, dilution 1:2 of 25 μg/mL
[2] = Table 10A, dilution 1:4 of 25 μg/mL
[3] = Table 10A, dilution 1:8 of 25 μg/mL
[4] = Table 10A, dilution 1:16 of 25 μg/mL

Q: How did the MIC (A. baumannii) turn out when Cc1ccccc1-c1cc(CNCCCNCCCN)cc(CNCCCNCCCN)c1 [CZ-63, N^1,N^1′-((2′-methyl-[1,1′-biphenyl]-3,5-diyl)bis(methylene))bis(N^3-(3-aminopropyl)propane-1,3-diamine), hydrochloride salt] was run?
A: < 50 µM

Q: How did the MIC (A. baumannii) turn out when NCCCNCCCNCc1cc(CNCCCNCCCN)cc(-c2ccc3c(c2)OCO3)c1 [CZ-61, N^1,N^1′-((5-(benzo[d][1,3]dioxol-5-yl)-1,3-phenylene)bis(methylene))bis(N^3-(3-ammoniopropyl)propane-1,3-diaminium) chloride] was run?
A: < 50 µM

Q: Which MIC (A. baumannii) does the source give for NCCCCCCCCCCCCNCc1cccc(CNCCCCCCCCCCCCN)c1 [CZ-21, N^1,N^1′-(1,3-phenylenebis(methylene))bis(dodecane-1,12-diamine), hydrochloride salt] here?
A: > 100 µM

Q: What about the MIC (MRSA) of the same compound?
A: < 50 µM

Q: For NCCCNCCCNCc1cccc(-c2cc(CNCCCNCCCN)cc(CNCCCNCCCN)c2)c1 [CZ-62, N^1,N^1′,N^1″-([1,1′-biphenyl]-3,3′,5-triyltris(methylene))tris(N^3-(3-aminopropyl)propane-1,3-diamine), hydrochloride salt], which MIC (A. baumannii) is on record?
A: < 50 µM

Q: And the “Results Pass/Fail” value (L-929 cells (ATCC CCL-1); Table 10A, 25 μg/mL)?
A: Fail (a numerical grade greater than 2 is considered a cytotoxic effect, or a failing score (Fail))

Q: And the “Results Pass/Fail” value (L-929 cells (ATCC CCL-1); [1])?
A: Fail (a numerical grade greater than 2 is considered a cytotoxic effect, or a failing score (Fail))

Q: And the “Results Pass/Fail” value (L-929 cells (ATCC CCL-1); [2])?
A: Fail (a numerical grade greater than 2 is considered a cytotoxic effect, or a failing score (Fail))

Q: And the “Results Pass/Fail” value (L-929 cells (ATCC CCL-1); [3])?
A: Pass (receives a passing score (Pass) if the reactivity grade is not greater than grade 2 or a mild reactivity)

Q: What about the “Results Pass/Fail” value (L-929 cells (ATCC CCL-1); [4]) of the same compound?
A: Pass (receives a passing score (Pass) if the reactivity grade is not greater than grade 2 or a mild reactivity)

Q: How did the MIC (A. baumannii) turn out when NCCCNCCCNCc1ccc(-c2cc(CNCCCNCCCN)cc(CNCCCNCCCN)c2)cc1 [CZ-65, N^1,N^1′,N^1″-([1,1′-biphenyl]-3,4′,5-triyltris(methylene))tris(N^3-(3-aminopropyl)propane-1,3-diamine), hydrochloride salt] was run?
A: < 50 µM

Q: And the “Results Pass/Fail” value (L-929 cells (ATCC CCL-1); Table 10A, 25 μg/mL)?
A: Fail (a numerical grade greater than 2 is considered a cytotoxic effect, or a failing score (Fail))

Q: What about the “Results Pass/Fail” value (L-929 cells (ATCC CCL-1); [1]) of the same compound?
A: Fail (a numerical grade greater than 2 is considered a cytotoxic effect, or a failing score (Fail))

Q: And the “Results Pass/Fail” value (L-929 cells (ATCC CCL-1); [2])?
A: Pass (receives a passing score (Pass) if the reactivity grade is not greater than grade 2 or a mild reactivity)

Q: And the “Results Pass/Fail” value (L-929 cells (ATCC CCL-1); [3])?
A: Pass (receives a passing score (Pass) if the reactivity grade is not greater than grade 2 or a mild reactivity)

Q: And the “Results Pass/Fail” value (L-929 cells (ATCC CCL-1); [4])?
A: Pass (receives a passing score (Pass) if the reactivity grade is not greater than grade 2 or a mild reactivity)

Q: For NCCCNCCCNCCCNCc1cc(CNCCCNCCCNCCCN)cc(-c2ccccc2)c1 [CZ-73, N^1,N^1′-([1,1′-biphenyl]-3,5-diylbis(methylene))bis(N^3-(3-((3-aminopropyl)amino)propyl)propane-1,3-diamine), hydrochloride salt], which MIC (A. baumannii) is on record?
A: 50 to 100 µM

Q: Which MIC (P. aeruginosa) does the source give for c1ccc(-c2cc(CNCCCNCCCNCC3CCCCC3)cc(CNCCCNCCCNCC3CCCCC3)c2)cc1 [CZ-96, N^1,N^1′-([1,1′-biphenyl]-3,5-diylbis(methylene))bis(N^3-(3-((cyclohexylmethyl)amino)propyl)propane-1,3-diamine)] here?
A: < 50 µM

Q: And the MIC (MRSA; Table 5)?
A: < 50 µM

Q: What about the “Results Pass/Fail” value (L-929 cells (ATCC CCL-1); Table 11A, 25 μg/mL) of the same compound?
A: Pass (receives a passing score (Pass) if the reactivity grade is not greater than grade 2 or a mild reactivity)

Q: What about the “Results Pass/Fail” value (L-929 cells (ATCC CCL-1); Table 11A, dilution 1:2 of 25 μg/mL) of the same compound?
A: Pass (receives a passing score (Pass) if the reactivity grade is not greater than grade 2 or a mild reactivity)

Q: And the “Results Pass/Fail” value (L-929 cells (ATCC CCL-1); Table 11A, dilution 1:4 of 25 μg/mL)?
A: Pass (receives a passing score (Pass) if the reactivity grade is not greater than grade 2 or a mild reactivity)

Q: What about the “Results Pass/Fail” value (L-929 cells (ATCC CCL-1); Table 11A, dilution 1:8 of 25 μg/mL) of the same compound?
A: Pass (receives a passing score (Pass) if the reactivity grade is not greater than grade 2 or a mild reactivity)

Q: What about the “Results Pass/Fail” value (L-929 cells (ATCC CCL-1); Table 11A, dilution 1:16 of 25 μg/mL) of the same compound?
A: Pass (receives a passing score (Pass) if the reactivity grade is not greater than grade 2 or a mild reactivity)
